Broadly, the IC50 is the concentration at which inhibition is half-maximal.

T2 sequence (P14902 whole entry): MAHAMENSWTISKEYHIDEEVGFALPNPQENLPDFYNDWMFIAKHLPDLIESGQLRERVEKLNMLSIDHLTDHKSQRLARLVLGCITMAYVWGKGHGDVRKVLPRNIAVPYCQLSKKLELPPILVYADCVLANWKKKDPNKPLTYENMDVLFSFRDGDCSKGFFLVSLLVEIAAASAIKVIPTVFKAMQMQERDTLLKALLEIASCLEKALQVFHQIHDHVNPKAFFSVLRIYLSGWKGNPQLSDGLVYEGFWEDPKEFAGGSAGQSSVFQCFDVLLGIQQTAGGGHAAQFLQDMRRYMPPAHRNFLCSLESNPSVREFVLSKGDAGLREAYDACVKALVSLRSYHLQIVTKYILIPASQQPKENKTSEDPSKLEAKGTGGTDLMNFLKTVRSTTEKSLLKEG

The target in the first experiment is T1, Human IDO1 (Homo sapiens, UniProt P14902).
T1 construct: expressed in transfected cells; host or cells: HEK293
T1 sequence (P14902 whole entry): as above
Kind of experiment: IDO Kynurenine Assay with Human IDO1/HEK293 Cells. It is filed as cell-based. To be noted: 20 hours incubation, kynurenine absorbance at 490 nm, read-out: HEK human IDO-1 (IC50). Here is the method: IDO Kynurenine Assay with Human IDO1/HEK293 Cells
Human IDO1/HEK293 cells were seeded at 10,000 cells per 50 uL per well with RPMI/phenol red free media contains 10% FBS in a 384-well black wall clear bottom tissue culture plate (Matrix Technologies LLC) 125 nL of certain concentration of compound was then added to each well using ECHO liquid handling systems. The cells were incubated for 20 hours in 37° C. incubator with 5% CO2.
The compound treatments were stopped by adding Trichloroacetic Acid (Sigma-Aldrich) to a final concentration at 0.2%. The cell plate was further incubated at 50° C. for 30 minute. The equal volume supernatant (20 uL) and 0.2% (w/v) Ehrlich reagent (4-dimethylaminobenzaldehyde, Sigma-Aldrich) in glacial acetic acid were mixed in a new clear bottom 384-well plate. This plate was then incubated at room temperature for 30 minute. The absorbance at 490 nm was measured on Envision plate reader.
Compound IC50 values were calculated using the counts of 500 nM of a reference standard treatment as one hundred percent inhibition, and counts of no compound but DMSO treatment as zero percent inhibition.
With `Cc1cc(CC(=O)Nc2cc(-c3cc(F)ccc3C(=O)O)ccc2N(CC(C)C)C2CCCCC2)on1` [Example 77], the IC50 turned out to be 0.3 µM. On to `Cc1ccc(CC(=O)Nc2cc(-c3ccccc3-c3nnn[nH]3)ccc2N2CC3CC2CN3Cc2ccccc2)cc1` (centres unmarked) [Example 80], for which the IC50 was 0.00513 µM. `Cc1cc(CC(=O)Nc2cc(-c3cc(F)ccc3C(=O)O)c(F)cc2N(CC(C)C)C2CCCCC2)on1` [Example 87]: the IC50 amounted to 0.14 µM.

As to `CCC(CC)N(CC(C)C)c1ccc(-c2ccccc2C(=O)O)cc1NC(=O)Cc1ccc(C)cc1` [Example 62], the IC50 came to 0.02 µM. In the case of `N#Cc1ccc(CC(=O)Nc2cc(-c3ccccc3C(=O)O)ccc2N(CCCC(F)(F)F)C2CCCCC2)cc1` [Example 73], the IC50 was determined as 2.11 µM. As for `CC(C)CN(c1cc(F)c(-c2ccccc2C(=O)O)cc1NC(=O)Cc1ccc(C#N)cc1)C1CCCCC1` [Example 84], the IC50 amounted to 0.03 µM. For the compound `COC(C)(C)CCN(c1ccc(-c2ccccc2-c2nnn[nH]2)cc1NC(=O)Cc1ccc(C)nc1)C1CCCCC1` [Example 56], the concentration for half-maximal inhibition (IC50) was 7.44 µM. Regarding `CC(C)CN(CC(C)C)c1ccc(-c2ccccc2-c2nnn[nH]2)cc1NC(=O)Cc1ccsc1` [Example 66], the IC50 was 0.02 µM.

For `Cc1ccc(CC(=O)Nc2cc(-c3ccccc3-c3nnn[nH]3)ccc2N(Cc2ccccc2)CC(C)C)cc1` [Example 74], the IC50 stood at 0.01 µM. Still for that read-out and setting: the figure for `N#Cc1ccc(CC(=O)Nc2cc(-c3ccccc3-c3nnn[nH]3)ccc2N(CCCC(F)(F)F)C2CCCCC2)cc1` [Example 71] is 0.27 µM.

As for `CCC(CC)N(CC(C)C)c1ccc(-c2cc(F)ccc2C(=O)O)cc1NC(=O)Cc1ccc(C)cc1` [Example 61], the half-maximal inhibitory concentration (IC50) amounted to 0.02 µM.

Take `N#Cc1ccc(CC(=O)Nc2cc(-c3cc(F)ccc3C(=O)O)ccc2N(CCCC(F)(F)F)C2CCCCC2)cc1` [Example 72]: the IC50 amounted to 1.86 µM. Regarding `Cc1ccc(CC(=O)Nc2cc(-c3ccccc3-c3nnn[nH]3)cc(F)c2N(CC(C)C)C2CCCCC2)cc1` [Example 58], the IC50 was 0.01 µM. On the same count and under the same terms, the figure for `CC(C)CN(CC(C)C)c1ccc(-c2ccccc2-c2nnn[nH]2)cc1NC(=O)Cc1cc(Br)cs1` [Example 64] is 0.04 µM; for `CC(C)CN(CCOC(C)C)c1ccc(-c2ccccc2C(=O)O)cc1NC(=O)Cc1ccc(C#N)cc1` [Example 68] it is 4.81 µM; for `CC(C)CN(CCOC(C)C)c1ccc(-c2cc(F)ccc2C(=O)O)cc1NC(=O)Cc1ccc(C#N)cc1` [Example 70] it is 2.93 µM.

As to `CC(C)CN(CC(C)C)c1ccc(-c2ccccc2-c2nnn[nH]2)cc1NC(=O)Cc1ccncc1` [Example 57], the IC50 amounted to 0.36 µM. Still for that read-out and setting: the same measure for `Cc1ccc(CC(=O)Nc2cc(-c3cc(F)ccc3C(=O)O)cc(F)c2N(CC(C)C)C2CCCCC2)cc1` [Example 60]: 0.03 µM. Turning to `CC(C)CN(CC(C)C)c1ccc(-c2ccccc2-c2nnn[nH]2)cc1NC(=O)Cc1ccc(I)cc1` [Example 49, N-(4-(diisobutylamino)-2′-(1H-tetrazol-5-yl)-[1,1′-biphenyl]-3-yl)-2-(4-iodophenyl)acetamide], the IC50 amounted to 0.00317 µM.

With `Cc1ccc(CC(=O)Nc2cc(-c3ccccc3-c3nnn[nH]3)ccc2N(CC(C)C)CC(C)C)cn1` [Example 55], the IC50 amounted to 0.12 µM. Still for that read-out and setting: the same measure for `CC(C)CN(CC(C)C)c1ccc(-c2ccccc2-c2nnn[nH]2)cc1NC(=O)Cc1ccc(Cl)nc1` [Example 67]: 0.02 µM. On the same count and under the same terms, the figure for `CC(C)CN(CC(C)C)c1ccc(-c2ccccc2-c2nnn[nH]2)cc1NC(=O)Cc1cccs1` [Example 65] is 0.02 µM; for `Cc1ccc(CC(=O)Nc2cc(-c3ccccc3C(=O)O)cc(F)c2N(CC(C)C)C2CCCCC2)cc1` [Example 59] it is 0.08 µM.

For `CC(C)CN(CCOC(C)C)c1ccc(-c2ccccc2-c2nnn[nH]2)cc1NC(=O)Cc1ccc(C#N)cc1` [Example 69], the half-inhibitory concentration (IC50) was 0.17 µM. In the case of `CC(C)CN(c1cc(F)c(-c2ccccc2-c2nnn[nH]2)cc1NC(=O)Cc1ccc(C#N)cc1)C1CCCCC1` [Example 85], the IC50 turned out to be 0.04 µM.

For `CCC(CC)N(CC(C)C)c1ccc(-c2ccccc2-c2nnn[nH]2)cc1NC(=O)Cc1ccc(C)cc1` [Example 63], the IC50 was determined as 0.00437 µM.

Another experiment has as its target T2, IDO (IFNγ-treated Hela cells) (Homo sapiens, UniProt P14902).
T2 construct: endogenous in cells; host or cells: Hela cells treated with IFNγ (10 ng/ml)
Kind of experiment: IDO Kynurenine Assay with Hela Cells. It is filed as cell-based. To be noted: IFNγ 10 ng/ml, 20 hours incubation, kynurenine absorbance at 490 nm, read-out: Hela Cells LLE_IDO_ABS_DR (IC50). How it is done: IDO Kynurenine Assay with Hela Cells
Hela cells were seeded at 30,000 cells per well in 40 ul RPMI/phenol red free media contains 10% FBS in a 384-well black wall clear bottom tissue culture plate (Matrix Technologies LLC). 270 nl of certain concentration of compound was then added to each well using ECHO liquid handling systems. 40 ul of IFNγ (R&D, 285-IF-100) at final concentration of 10 ng/ml was then added to column 2-24 with media to column 1 as control. The cells were incubated for 20 hours in 37° C. incubator with 5% CO2.
The compound treatments were stopped by adding trichloroacetic acid (Sigma-Aldrich) to a final concentration at 0.2%. The cell plate was further incubated at 50° C. for 30 minute. The equal volume supernatant (20 uL) and 0.2% (w/v) Ehrlich reagent (4-dimethylaminobenzaldehyde, Sigma-Aldrich) in glacial acetic acid were mixed in a new clear bottom 384-well plate. This plate was then incubated at room temperature for 30 minute. The absorbance at 490 nm was measured on Envision plate reader.
Compound IC50 values were calculated using the counts of no IFNγ control as one hundred percent inhibition, and counts of no compound but DMSO treatment as zero percent inhibition.
In the case of `Cc1ccc(CC(=O)Nc2cc(-c3ccccc3-c3nnn[nH]3)ccc2N2CC3CC2CN3Cc2ccccc2)cc1` (centres unmarked) [Example 80], the IC50 was 0.00844 µM. On the same count and under the same terms, the same measure for `Cc1ccc(CC(=O)Nc2cc(-c3ccccc3-c3nnn[nH]3)ccc2N(Cc2ccccc2)CC(C)C)cc1` [Example 74]: 0.00306 µM; for `COc1ccc(CC(=O)Nc2cc(-c3ccccc3-c3nnn[nH]3)ccc2N(CC(C)C)CC(C)C)cc1` [Example 11, N-(4-(diisobutylamino)-2′-(1H-tetrazol-5-yl)biphenyl-3-yl)-2-(4-methoxyphenyl)acetamide]: 0.00405 µM. Still for that read-out and setting: the figure for `CC(C)CN(CC(C)C)c1ccc(-c2ccccc2-c2nnn[nH]2)cc1NC(=O)Cc1cccc2ccccc12` [Example 24] is 0.08 µM.

Consider `CC(C)CN(CC(C)C)c1ccc(-c2ccccc2-c2nnn[nH]2)cc1NC(=O)COc1cccnc1` [Example 42], for which the IC50 was determined as 0.5 µM. `CC(C)CN(CC(C)C)c1ccc(-c2ccccc2-c2nnn[nH]2)cc1NC(=O)Cc1cccc(C(F)(F)F)c1` [Example 27]: the IC50 worked out at 0.16 µM. The same measure, in the same setting: the figure for `CC(C)CN(CC(C)C)c1ccc(-c2ccccc2-c2nnn[nH]2)cc1NC(=O)Cc1cccc(F)c1F` [Example 39] is 0.05 µM. Still for that read-out and setting: the figure for `CC(C)CN(CC(C)C)c1ccc(-c2ccccc2-c2nnn[nH]2)cc1NC(=O)Cc1ccccn1` [Example 30] is 0.3 µM; for `CC(C)CN(CC(C)C)c1ccc(-c2ccccc2-c2nnn[nH]2)cc1NC(=O)Cc1ccccc1Cl` [Example 25] it is 0.02 µM. On the same count and under the same terms, the figure for `CC(C)(C)CC(=O)Nc1cc(-c2ccccc2-c2nnn[nH]2)ccc1N1CC2CC1CN2Cc1ccccc1` (centres unmarked) [Example 82] is 3.61 µM; for `N#Cc1ccc(CC(=O)Nc2cc(-c3ccccc3-c3nnn[nH]3)ccc2N2CC3CC2CN3Cc2ccccc2)cc1` (centres unmarked) [Example 79] it is 2.51 µM; for `CC(C)CN(CC(C)C)c1ccc(-c2ccccc2-c2nnn[nH]2)cc1NC(=O)Cc1cccnc1` [Example 31] it is 0.07 µM. Regarding `Cc1ccc(CC(=O)Nc2cc(-c3ccccc3-c3nnn[nH]3)ccc2N2C[C@H](C)C[C@H](C)C2)cc1` [Example 21, N-(4-(cis-3,5-Dimethylpiperidin-1-yl)-2′-(1H-tetrazol-5-yl)-[1,1′-biphenyl]-3-yl)-2-(p-tolyl)acetamide], the half-inhibitory concentration (IC50) turned out to be 0.52 µM.

For the compound `CCCCN(c1ccc(-c2ccccc2-c2nnn[nH]2)cc1NC(=O)Cc1ccccc1F)C1CCCCC1` [Example 10, N-(4-(butyl(cyclohexyl)amino)-2′-(1H-tetrazol-5-yl)-[1,1′-biphenyl]-3-yl)-2-(2-fluorophenyl) acetamide], the 50% inhibitory concentration (IC50) amounted to 0.00709 µM. Take `CC(C)CN(c1ccc(-c2ccccc2C(=O)O)cc1NC(=O)Cc1ccccc1F)C1CCCCC1` [Example 5, 4′-(cyclohexyl(isobutyl)amino)-3′-(2-(2-fluorophenyl)acetamido) biphenyl-2-carboxylic acid]: the IC50 worked out at 0.04 µM. Still for that read-out and setting: the figure for `COc1ccc(OC(=O)Nc2cc(-c3ccccc3-c3nnn[nH]3)ccc2N(CC(C)C)CC(C)C)cc1F` [Example 52, 3-fluoro-4-methoxyphenyl (4-(diisobutylamino)-2′-(1H-tetrazol-5-yl)-[1,1′-biphenyl]-3-yl) carbamate] is 6.56 µM; for `COCCOCC(=O)Nc1cc(-c2ccccc2-c2nnn[nH]2)ccc1N(CC(C)C)CC(C)C` [Example 41] it is 1.83 µM.

Turning to `CC(C)CN(CC(C)C)c1ccc(-c2ccccc2-c2nnn[nH]2)cc1NC(=O)Cc1ccc(Oc2ccccc2)cc1` [Example 34], the half-maximal inhibitory concentration (IC50) turned out to be 0.25 µM. The same measure, in the same setting: the same measure for `Cc1ccc(CC(=O)Nc2cc(-c3ccccc3-c3nnn[nH]3)ccc2N(CC(C)C)CC(C)C)cc1` [Example 2, N-(4-(Diisobutylamino)-2′-(1H-tetrazol-5-yl)biphenyl-3-yl)-2-p-tolylacetamide]: 0.00502 µM; for `CC(C)CN(CC(C)C)c1ccc(-c2ccccc2-c2nnn[nH]2)cc1NC(=O)Cc1ccc(OC(F)(F)F)cc1` [Example 15, N-(4-(diisobutylamino)-2′-(1H-tetrazol-5-yl)biphenyl-3-yl)-2-(4-(trifluoromethoxy)phenyl)acetamide]: 0.09 µM. Take `Cc1noc(C)c1CC(=O)Nc1cc(-c2ccccc2-c2nnn[nH]2)ccc1N(CC(C)C)CC(C)C` [Example 37]: the IC50 stood at 1.28 µM.

(Values after US9895330B2, “IDO inhibitors” (BRISTOL-MYERS SQUIBB COMPANY, priority 2013, dated 2018).)
